Assay results reported in patent US12599136B2, “Substituted isophthalic acid diamides and their use as herbicides” (Bayer Aktiengesellschaft, priority 2020, dated 2026).

What was measured:
Type in all cases: in vivo
Matricaria inodora [1] = test: Pre-emergence herbicidal action against MATIN; conditions: visual score after 3 weeks vs untreated controls
Outline: (§1)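 Greenhouse pots of sandy loam held seeds covered with soil, onto which the compound was applied before emergence. An aqueous suspension or emulsion of WP or EC was used at 600 to 800 l/ha with 0.2% wetting agent. Percent damage was judged visually at 3 weeks.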

Abutilon theophrasti [2] = test: Post-emergence herbicidal action against ABUTH
Outline: (§2)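 A WP or EC formulation diluted in water with 0.2% wetting agent was sprayed at 600 to 800 l/ha onto one-leaf-stage plants grown in sandy loam. About 3 weeks later, action was rated visually in percent, 100% being dead plants.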

Setaria viridis [3] = test: Post-emergence herbicidal action against SETVI; conditions: visual assessment about 3 weeks after treatment
Outline: as §2

Echinochloa crus-galli [4] = test: Pre-emergence herbicidal action against ECHCG; conditions: 80 g/ha; visual score after 3 weeks vs untreated controls
Outline: as §1

Digitaria sanguinalis [5] = test: Pre-emergence herbicidal action against DIGSA
Outline: as §1

Veronica persica [6] = test: Post-emergence herbicidal action against VERPE; conditions: 20 g/ha, visual assessment about 3 weeks after treatment
Outline: as §2

Matricaria inodora [7] = test: Post-emergence herbicidal action against MATIN; conditions: visual assessment about 3 weeks after treatment
Outline: as §2

Setaria viridis [8] = test: Pre-emergence herbicidal action against SETVI; conditions: 80 g/ha
Outline: as §1

Viola tricolor [9] = test: Pre-emergence herbicidal action against VIOTR
Outline: as §1

Abutilon theophrasti [10] = test: Pre-emergence herbicidal action against ABUTH; conditions: visual score after 3 weeks vs untreated controls
Outline: as §1

Amaranthus retroflexus [11] = test: Pre-emergence herbicidal action against AMARE; conditions: visual score after 3 weeks vs untreated controls
Outline: as §1

Alopecurus myosuroides [12] = test: Pre-emergence herbicidal action against ALOMY; conditions: 80 g/ha; visual score after 3 weeks vs untreated controls
Outline: as §1

Viola tricolor [13] = test: Post-emergence herbicidal action against VIOTR
Outline: as §2

Amaranthus retroflexus [14] = test: Post-emergence herbicidal action against AMARE; conditions: visual assessment about 3 weeks after treatment
Outline: as §2

Veronica persica [15] = test: Pre-emergence herbicidal action against VERPE; conditions: 80 g/ha
Outline: as §1

Echinochloa crus-galli [16] = test: Post-emergence herbicidal action against ECHCG; conditions: visual assessment about 3 weeks after treatment
Outline: as §2

Alopecurus myosuroides [17] = test: Post-emergence herbicidal action against ALOMY
Outline: as §2

Digitaria sanguinalis [18] = test: Post-emergence herbicidal action against DIGSA
Description: Seeds of monocotyledonous and dicotyledonous weed and crop plants are laid out in sandy loam soil in wood-fiber pots, covered with soil and cultivated in a greenhouse under good growth conditions. 2 to 3 weeks after sowing, the test plants are treated at the one-leaf stage. The compounds of the invention, formulated in the form of wettable powders (WP) or as emulsion concentrates (EC), are then sprayed onto the green parts of the plants in the form of an aqueous suspension or emulsion at a water application rate equivalent to 600 to 800 l/ha, with addition of 0.2% wetting agent. After the test plants have been left to stand in the greenhouse under optimal growth conditions for about 3 weeks, the action of the preparations is assessed visually in comparison to untreated controls (herbicidal action in percent (%): 100% activity=the plants have died, 0% activity=like control plants). […] The tables below illustrate, in an illustrative manner, the post-emergence herbicidal action of the compounds of the invention, the herbicidal activity being stated in percent.

Avena fatua [19] = test: Pre-emergence herbicidal action against AVEFA; conditions: 80 g/ha; visual score after 3 weeks vs untreated controls
Outline: as §1

Avena fatua [20] = test: Post-emergence herbicidal action against AVEFA; conditions: 20 g/ha, visual assessment about 3 weeks after treatment
Outline: as §2

Polygonum convolvulus = test: Pre-emergence herbicidal action against POLCO; conditions: 80 g/ha
Outline: as §1

Pharbitis purpurea = test: Post-emergence herbicidal action against PHBPU; conditions: visual assessment about 3 weeks after treatment
Outline: as §2

SMILES	Pre-emergence action against MATIN (Matricaria inodora [1]; 80 g/ha) [%]	Post-emergence action against ABUTH (Abutilon theophrasti [2]; 20 g/ha) [%]	Post-emergence action against SETVI in % (Setaria viridis [3]; 20 g/ha) [%]	Pre-emergence action against ECHCG (Echinochloa crus-galli [4]) [%]	Pre-emergence action against DIGSA (Digitaria sanguinalis [5]; 80 g/ha) [%]	Post-emergence action against MATIN in % (Matricaria inodora [7]; 20 g/ha) [%]	Pre-emergence action against SETVI (Setaria viridis [8]) [%]	Pre-emergence action against VIOTR (Viola tricolor [9]; 80 g/ha) [%]	Pre-emergence action against ABUTH (Abutilon theophrasti [10]; 20 g/ha) [%]	Pre-emergence action against ABUTH (Abutilon theophrasti [10]; 80 g/ha) [%]	Pre-emergence action against AMARE (Amaranthus retroflexus [11]; 80 g/ha) [%]	Pre-emergence action against ALOMY (Alopecurus myosuroides [12]) [%]	Post-emergence action against VIOTR in % (Viola tricolor [13]; 20 g/ha) [%]	Post-emergence action against AMARE in % (Amaranthus retroflexus [14]; 5 g/ha) [%]	Post-emergence action against AMARE in % (Amaranthus retroflexus [14]; 20 g/ha) [%]	Post-emergence action against ECHCG in % (Echinochloa crus-galli [16]; 20 g/ha) [%]	Post-emergence action against ALOMY (Alopecurus myosuroides [17]; 20 g/ha) [%]	Post-emergence action against DIGSA in % (Digitaria sanguinalis [18]; 20 g/ha) [%]	Pre-emergence action against AMARE (Amaranthus retroflexus [11]; 20 g/ha) [%]	Pre-emergence action against AVEFA (Avena fatua [19]) [%]	also measured
CCn1nnnc1NC(=O)c1ccc(C(F)(F)F)c(C(=O)N(C)C)c1C [Example 2-19]	90	100	80	90	100	80	100	100	80	100	100	90	100	80	90	90	80	90			Post-emergence action against SETVI in % (Setaria viridis [3]; 5 g/ha): 80%; Pre-emergence action against DIGSA (Digitaria sanguinalis [5]; 20 g/ha): 100%; Post-emergence action against VERPE in % (Veronica persica [6]): 80%; Pre-emergence action against VIOTR (Viola tricolor [9]; 20 g/ha): 80%; Post-emergence action against VIOTR in % (Viola tricolor [13]; 5 g/ha): 80%; Pre-emergence action against VERPE (Veronica persica [15]): 90%
Cc1c(C(=O)Nc2nnnn2C)ccc(C(F)(F)F)c1C(=O)N(C)C [Example 1-19]	90	100	100	90	100		100	100	90	100	100	80	80		100	90		90	100	80	Post-emergence action against ABUTH (Abutilon theophrasti [2]; 5 g/ha): 90%; Post-emergence action against SETVI in % (Setaria viridis [3]; 5 g/ha): 100%; Post-emergence action against VERPE in % (Veronica persica [6]): 80%; Post-emergence action against DIGSA in % (Digitaria sanguinalis [18]; 5 g/ha): 90%
CN(C(=O)c1c(C(F)(F)F)ccc(C(=O)Nc2nnnn2C)c1Cl)C1CC1 [Example 1-125]	100		80	90	100	80	100	100	100	100	100	100	80	80	90		90	100	100	80	Pre-emergence action against DIGSA (Digitaria sanguinalis [5]; 20 g/ha): 100%; Post-emergence action against VERPE in % (Veronica persica [6]): 90%; Pre-emergence action against VIOTR (Viola tricolor [9]; 20 g/ha): 100%; Post-emergence action against AVEFA in % (Avena fatua [20]): 80%; Post-emergence action against ALOMY (Alopecurus myosuroides [17]; 5 g/ha): 80%
CCN(CC)C(=O)c1c(C(F)F)ccc(C(=O)Nc2nnnn2CC)c1Cl [Example 2-166]	100	90	90	90		80	100	100	100	100	100	90	80	100	100	80	90	90	100	80	Pre-emergence action against MATIN (Matricaria inodora [1]; 20 g/ha): 80%; Post-emergence action against ABUTH (Abutilon theophrasti [2]; 5 g/ha): 80%; Post-emergence action against SETVI in % (Setaria viridis [3]; 5 g/ha): 90%; Pre-emergence action against POLCO (Polygonum convolvulus): 80%; Post-emergence action against PHBPU in % (Pharbitis purpurea; 5 g/ha): 80%; Post-emergence action against PHBPU in % (Pharbitis purpurea; 20 g/ha): 90%; Post-emergence action against MATIN in % (Matricaria inodora [7]; 5 g/ha): 80%; Pre-emergence action against VERPE (Veronica persica [15]): 100%; Post-emergence action against AVEFA in % (Avena fatua [20]): 80%; Post-emergence action against DIGSA in % (Digitaria sanguinalis [18]; 5 g/ha): 80%
CCN(CC)C(=O)c1c(C(F)(F)F)ccc(C(=O)Nc2nnnn2C)c1Cl [Example 1-135]	100	90		90	100	80	100	100	100	100	100	100	90	80	80	90	90	90	100	90	Pre-emergence action against MATIN (Matricaria inodora [1]; 20 g/ha): 90%; Post-emergence action against ABUTH (Abutilon theophrasti [2]; 5 g/ha): 80%; Pre-emergence action against VIOTR (Viola tricolor [9]; 20 g/ha): 100%; Pre-emergence action against VERPE (Veronica persica [15]): 90%; Post-emergence action against ECHCG in % (Echinochloa crus-galli [16]; 5 g/ha): 80%; Post-emergence action against AVEFA in % (Avena fatua [20]): 80%; Post-emergence action against ALOMY (Alopecurus myosuroides [17]; 5 g/ha): 80%; Post-emergence action against DIGSA in % (Digitaria sanguinalis [18]; 5 g/ha): 90%
